Measurements taken from patent US12673927B2, “Substituted aminothiazoles as DGKzeta inhibitors for immune activation” (Deutsches Krebsforschungszentrum, priority 2020, dated 2026).

Each compound was assayed against T1, human DGKζ (Homo sapiens, UniProt Q13574) (assay: Human DGKζ kinase activity inhibition assay (ADP-Glo)). Details: intermediates (lacking the R2 side chain; comparative); highest test concentration 20 μM; read-out: IC50 values of intermediates in in vitro human DGKζ kinase activity inhibition assays.
T1 construct: made in house; host or cells: Sf9 insect cells, baculovirus
Format: biochemical
Procedure: Human DGKζ Kinase Activity Inhibition Assay
Human diacylglycerol kinase zeta (DGKζ) inhibitory activity of compounds of the present invention was quantified employing the human DGKζ kinase activity assay as described in the following paragraphs. In essence, the enzyme activity was measured by quantification of the adenosine-di-phosphate (ADP) generated as a co-product of the enzyme reaction via the “ADP-Glo™ Kinase Assay” kit from the company Promega. This detection system works as follows: In a first step the adenosine-tri-phosphate (ATP) not consumed in the kinase reaction is quantitatively converted to cyclic adenosine-mono-phosphate (cAMP) employing an adenylate cyclase (“ADP-Glo-reagent”), then the adenylate cyclase is stopped and the ADP generated in the kinase reaction is converted to ATP, which subsequently generates in a luciferase-based reaction a glow-luminescence signal (“Kinase Detection Reagent”).
C-terminally FLAG-tagged, recombinant full-length human DGKζ (inhouse expressed in baculovirus infected insect cells, purified using anti-Flag pulldown and size exclusion chromatography) was used as enzyme. As an alternative, commercially available enzyme by Carnabio can be used. As substrate for the kinase, 1,2-dioleoyl-sn-glycerol, reconstituted in octyl-β-D-glucopyranoside micelles, was used. […] Subsequently, 22.55 volumes of a 510 mM solution of octyl-β-D-glucopyranoside (Sigma-Aldrich, Cat. #08001-10G) in 50 mM MOPS buffer (pH 7.4) were added, and the mixture was sonicated in an ultrasonic bath for 20 s. Then 35 volumes of 50 mM MOPS buffer (pH 7.4) were added to yield a solution of 0.28 mM 1,2 dioleoyl-sn-glycerol and 200 mM octyl-β-D-glucopyranoside, which was aliquoted, flash-frozen in liquid nitrogen, and stored at −20° C. until use.
For the assay 50 nl of a 100-fold concentrated solution of the test compound in dimethyl sulfoxide (DMSO, Sigma) was pipetted into either a white 1536-well or a white low-volume 384-well microtiter plate (both Greiner Bio-One, Frickenhausen, Germany). […] The concentration of DGKζ was adjusted depending of the activity of the enzyme lot and was chosen appropriate to have the assay in the linear range, a typical concentration is about 0.1 nM. The reaction was stopped by the addition of 2.5 μL of “ADP-Glo-reagent” (1 to 1.5 diluted with water) and the resulting mixture was incubated at 22° C. for 1 h to convert the ATP not consumed in the kinase reaction completely to cAMP. Subsequently 2.5 μl of the “kinase detection reagent” (1.2 fold more concentrated than recommended by the producer) were added, the resulting mixture was incubated at 22° C. for 1 h and then the luminescence measured with a suitable measurement instrument (e.g. Viewlux™ from Perkin-Elmer). The amount of emitted light was taken as a measure for the amount of ADP generated and thereby for the activity of the DGKζ.
The data were normalised (enzyme reaction without inhibitor=0% inhibition, all other assay components but no enzyme=100% inhibition).

T1 sequence (Q13574 with tags, fused parts or gaps): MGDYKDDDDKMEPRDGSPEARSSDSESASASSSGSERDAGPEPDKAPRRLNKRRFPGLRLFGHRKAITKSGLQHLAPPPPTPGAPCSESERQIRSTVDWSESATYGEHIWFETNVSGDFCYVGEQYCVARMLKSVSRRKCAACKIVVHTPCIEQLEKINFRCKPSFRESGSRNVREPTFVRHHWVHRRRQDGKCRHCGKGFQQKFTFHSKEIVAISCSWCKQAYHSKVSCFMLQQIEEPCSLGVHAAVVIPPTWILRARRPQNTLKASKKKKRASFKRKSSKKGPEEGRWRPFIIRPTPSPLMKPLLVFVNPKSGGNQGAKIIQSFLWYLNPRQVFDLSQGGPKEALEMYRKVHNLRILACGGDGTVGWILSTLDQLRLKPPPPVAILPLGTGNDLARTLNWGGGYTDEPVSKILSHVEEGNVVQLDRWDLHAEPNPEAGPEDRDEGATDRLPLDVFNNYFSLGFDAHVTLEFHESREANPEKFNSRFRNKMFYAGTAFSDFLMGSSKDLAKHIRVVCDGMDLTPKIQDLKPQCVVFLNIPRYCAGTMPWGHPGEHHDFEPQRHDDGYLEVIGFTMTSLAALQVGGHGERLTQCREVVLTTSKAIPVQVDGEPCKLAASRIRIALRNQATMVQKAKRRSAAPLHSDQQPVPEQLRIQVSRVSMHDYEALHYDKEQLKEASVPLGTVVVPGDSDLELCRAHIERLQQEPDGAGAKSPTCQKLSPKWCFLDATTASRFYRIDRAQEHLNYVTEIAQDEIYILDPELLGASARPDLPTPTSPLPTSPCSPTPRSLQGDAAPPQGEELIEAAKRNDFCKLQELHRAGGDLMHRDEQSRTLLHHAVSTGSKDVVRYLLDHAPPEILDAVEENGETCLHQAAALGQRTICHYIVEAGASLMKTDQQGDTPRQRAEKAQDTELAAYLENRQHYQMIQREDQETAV

Compound	IC50
Nc1nc(Nc2ccc(F)cc2F)sc1C(=O)c1ccccc1 [Example 66]	> 20000 nM

Same assay, conditions: recombinant full-length human DGKζ, 55 μM ATP, 7 μM 1,2-dioleoyl-sn-glycerol, 20 min at 22° C.; read-out: IC50 in vitro human DGKζ kinase activity inhibition assay

Compound	IC50
CC(C(N)=O)N(c1ccc(F)cc1)c1nc(N)c(C(=O)c2ccc(OCC(=O)NCCN3CCCCC3)cc2)s1 (single isomer, unassigned) [Example 148, 2-(N-[4-amino-5-[4-[2-oxo-2-[2-(1-piperidyl)ethylamino]ethoxy]benzoyl]thiazol-2-yl]-4-fluoro-anilino)propanamide]	76.4 nM
Cc1cccc(N(c2nc(N)c(C(=O)c3ccccc3)s2)C(C)C(N)=O)c1 (single isomer, unassigned) [Example 76.2, 2-(N-(4-amino-5-benzoyl-thiazol-2-yl)-3-methyl-anilino)propanamide]	11000 nM
Cc1ccc(C(=O)c2sc(N(CC(N)=O)c3ccc(F)cc3)nc2N)cc1 (racemic) [Example 72]	985 nM
NC(=O)CN(c1ccc(F)cc1)c1nc(N)c(C(=O)c2ccccc2)s1 (racemic) [Example 71]	2310 nM
CC(C(N)=O)N(c1cccc(F)c1)c1nc(N)c(C(=O)c2ccccc2)s1 (single isomer, unassigned) [Example 74.2, 2-(N-(4-amino-5-benzoyl-thiazol-2-yl)-3-fluoro-anilino)propanamide]	81.4 nM
CC(C(N)=O)N(c1ccc(F)cc1)c1nc(N)c(C(=O)c2ccc(C#N)c(F)c2)s1 (single isomer, unassigned) [Example 21.2, 2-(N-[4-amino-5-(4-cyano-3-fluoro-benzoyl)thiazol-2-yl]-4-fluoro-anilino)propanamide]	51 nM
